Experimental data taken from ChEMBL document CHEMBL1201862, “PubChem BioAssay data set” (2004).
Blank lines part the entries; values can stand above or below the molecule they belong to. Active and inactive are the calls of the source.

What was measured:
[1] = target: Sphingosine 1-phosphate receptor 4 (Homo sapiens, UniProt O95977); experiment: potency of S1P4 activators – cell-based, fluorescence, synthesized compounds, late-stage follow-up (AID 463107); assay type: functional
[2] = target: Delta-type opioid receptor (Homo sapiens, UniProt P41143); experiment: SAR Analysis of Antagonists of the DOR Receptor using an Image-Based Assay - Set 3. [Related pubchem assays (depositor defined):AID1777, AID1785]; assay type: functional;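 further: U2OS cells expressing DOR1 and beta-arrestin GFP stimulated with 100 nM SNC80; imaging of GFP-tagged beta-arrestin moving into spots after receptor activation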
Sequence of Delta-type opioid receptor (P41143 whole entry): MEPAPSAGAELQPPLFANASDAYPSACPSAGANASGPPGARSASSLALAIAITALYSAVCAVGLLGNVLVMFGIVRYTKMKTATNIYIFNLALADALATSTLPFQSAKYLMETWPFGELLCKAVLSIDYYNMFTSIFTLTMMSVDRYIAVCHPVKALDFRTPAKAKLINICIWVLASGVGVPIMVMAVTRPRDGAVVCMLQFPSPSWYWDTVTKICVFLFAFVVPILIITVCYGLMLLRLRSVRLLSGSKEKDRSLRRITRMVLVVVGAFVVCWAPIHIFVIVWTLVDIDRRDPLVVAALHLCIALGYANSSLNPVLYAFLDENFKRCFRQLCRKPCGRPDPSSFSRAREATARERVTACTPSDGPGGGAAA

[3] = target: T1, Kappa-type opioid receptor (Homo sapiens, UniProt P41145); experiment: SAR analysis of small molecule antagonists of the kappa opioid receptor via a luminescent beta-arrestin assay - Set 3. [Related pubchem assays (depositor defined):AID1777, AID1778, AID1785, AID1786, AID1966, AID2133, AID2136, AID2285, AID2495]; assay type: functional
T1 sequence (P41145 whole entry): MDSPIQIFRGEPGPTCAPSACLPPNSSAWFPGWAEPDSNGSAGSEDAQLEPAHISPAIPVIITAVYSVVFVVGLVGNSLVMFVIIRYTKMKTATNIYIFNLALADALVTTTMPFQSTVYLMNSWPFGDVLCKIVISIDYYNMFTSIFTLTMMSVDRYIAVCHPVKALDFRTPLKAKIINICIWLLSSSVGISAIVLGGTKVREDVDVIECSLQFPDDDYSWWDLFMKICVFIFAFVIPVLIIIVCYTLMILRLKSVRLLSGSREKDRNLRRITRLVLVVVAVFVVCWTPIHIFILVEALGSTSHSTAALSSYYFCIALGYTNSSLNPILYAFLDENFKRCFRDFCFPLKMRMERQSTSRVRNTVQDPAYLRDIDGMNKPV

[4] = target: T1, Kappa-type opioid receptor; experiment: SAR analysis of Antagonists of the Kappa Opioid Receptor (KOR) using an Image-Based Assay - Set 4. [Related pubchem assays (depositor defined):AID1777, AID1785]; assay type: functional
[5] = target: T1, Kappa-type opioid receptor; experiment: SAR analysis of small molecule antagonists of the kappa opioid receptor via a luminescent beta-arrestin assay - Set 6. [Related pubchem assays (depositor defined):AID1777, AID1778, AID1785, AID1786, AID1966, AID2133, AID2136, AID2285]; assay type: functional
[6] = target: Mu-type opioid receptor (Homo sapiens, UniProt P35372); experiment: SAR Analysis of Antagonists of the MOR Receptor using an Image-Based Assay - Set 3. [Related pubchem assays (depositor defined):AID1777, AID1785, AID1786, AID1966, AID2133, AID2136, AID2284, AID2285, AID2420]; assay type: functional
Sequence of Mu-type opioid receptor (P35372 whole entry): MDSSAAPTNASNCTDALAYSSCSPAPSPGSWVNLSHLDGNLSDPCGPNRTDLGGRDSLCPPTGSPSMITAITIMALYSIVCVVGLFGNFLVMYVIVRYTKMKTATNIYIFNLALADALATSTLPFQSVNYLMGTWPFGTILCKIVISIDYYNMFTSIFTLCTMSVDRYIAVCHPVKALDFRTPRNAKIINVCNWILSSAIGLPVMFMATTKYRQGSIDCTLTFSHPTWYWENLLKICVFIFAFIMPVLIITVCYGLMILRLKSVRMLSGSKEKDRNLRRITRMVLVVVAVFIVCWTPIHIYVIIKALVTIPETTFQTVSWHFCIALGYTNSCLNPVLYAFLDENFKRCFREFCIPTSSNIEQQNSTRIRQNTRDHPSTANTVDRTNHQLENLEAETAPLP

[7] = tested on: Trypanosoma cruzi; experiment: anti-trypanosomal activity in host cells – cell-based, plate reader, dry powder, set 3, dose response (AID 493197); assay type: functional
[8] = NIH/3T3 cell viability loss – mouse embryonic fibroblasts, dry powder, set 2, cytotoxicity control, dose response (AID 493247); assay type: functional, cell-based; details: Fibroblast
[9] = target: Wee1-like protein kinase (Homo sapiens, UniProt P30291); experiment: HeLa cell cycle G2/M accumulation – FACS, mechanism study for Wee1 degradation inhibitor project, late-stage follow-up, panel member Wee1 Degradation (AID 2088)
Sequence of Wee1-like protein kinase (P30291 whole entry): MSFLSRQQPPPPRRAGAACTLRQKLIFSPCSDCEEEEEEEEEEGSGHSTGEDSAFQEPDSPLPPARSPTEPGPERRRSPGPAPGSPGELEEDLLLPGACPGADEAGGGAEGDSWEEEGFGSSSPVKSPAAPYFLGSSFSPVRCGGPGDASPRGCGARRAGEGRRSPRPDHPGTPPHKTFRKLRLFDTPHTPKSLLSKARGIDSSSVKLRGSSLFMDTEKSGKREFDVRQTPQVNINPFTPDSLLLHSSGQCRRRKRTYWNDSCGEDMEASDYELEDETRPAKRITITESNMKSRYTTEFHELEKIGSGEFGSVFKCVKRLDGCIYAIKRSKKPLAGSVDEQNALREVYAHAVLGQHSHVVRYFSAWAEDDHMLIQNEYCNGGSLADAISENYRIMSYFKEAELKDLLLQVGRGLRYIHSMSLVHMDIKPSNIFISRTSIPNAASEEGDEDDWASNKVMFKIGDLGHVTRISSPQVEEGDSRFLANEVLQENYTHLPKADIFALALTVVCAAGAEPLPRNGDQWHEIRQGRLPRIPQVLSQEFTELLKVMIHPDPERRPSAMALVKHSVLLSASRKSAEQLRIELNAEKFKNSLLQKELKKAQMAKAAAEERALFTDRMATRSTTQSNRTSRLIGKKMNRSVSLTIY

[10] = target: G2/mitotic-specific cyclin-B1 (Homo sapiens, UniProt P14635); experiment: HeLa cell cycle G2/M accumulation – FACS, mechanism study for Wee1 degradation inhibitor project, late-stage follow-up, panel member Cyclin B Degradation (AID 2088)
Sequence of G2/mitotic-specific cyclin-B1 (P14635 whole entry, the tested form may be a part): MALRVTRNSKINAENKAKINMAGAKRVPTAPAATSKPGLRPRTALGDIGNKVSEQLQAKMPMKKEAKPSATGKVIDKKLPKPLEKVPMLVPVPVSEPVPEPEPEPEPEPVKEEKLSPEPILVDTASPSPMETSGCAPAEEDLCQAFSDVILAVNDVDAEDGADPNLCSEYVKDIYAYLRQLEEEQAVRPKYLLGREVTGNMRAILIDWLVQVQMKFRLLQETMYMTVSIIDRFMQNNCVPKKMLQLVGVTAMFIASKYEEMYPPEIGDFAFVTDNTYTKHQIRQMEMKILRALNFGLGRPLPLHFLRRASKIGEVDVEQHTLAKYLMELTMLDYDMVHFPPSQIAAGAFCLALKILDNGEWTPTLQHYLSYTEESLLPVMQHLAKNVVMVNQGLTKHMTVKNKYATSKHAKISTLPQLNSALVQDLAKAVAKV

[11] = target: NACHT, LRR and PYD domains-containing protein 3 (Homo sapiens, UniProt Q96P20); experiment: NALP3 inhibitors in yeast, dose response, luminescent (AID 488799); assay type: functional
Sequence of NACHT, LRR and PYD domains-containing protein 3 (Q96P20 whole entry, the tested form may be a part): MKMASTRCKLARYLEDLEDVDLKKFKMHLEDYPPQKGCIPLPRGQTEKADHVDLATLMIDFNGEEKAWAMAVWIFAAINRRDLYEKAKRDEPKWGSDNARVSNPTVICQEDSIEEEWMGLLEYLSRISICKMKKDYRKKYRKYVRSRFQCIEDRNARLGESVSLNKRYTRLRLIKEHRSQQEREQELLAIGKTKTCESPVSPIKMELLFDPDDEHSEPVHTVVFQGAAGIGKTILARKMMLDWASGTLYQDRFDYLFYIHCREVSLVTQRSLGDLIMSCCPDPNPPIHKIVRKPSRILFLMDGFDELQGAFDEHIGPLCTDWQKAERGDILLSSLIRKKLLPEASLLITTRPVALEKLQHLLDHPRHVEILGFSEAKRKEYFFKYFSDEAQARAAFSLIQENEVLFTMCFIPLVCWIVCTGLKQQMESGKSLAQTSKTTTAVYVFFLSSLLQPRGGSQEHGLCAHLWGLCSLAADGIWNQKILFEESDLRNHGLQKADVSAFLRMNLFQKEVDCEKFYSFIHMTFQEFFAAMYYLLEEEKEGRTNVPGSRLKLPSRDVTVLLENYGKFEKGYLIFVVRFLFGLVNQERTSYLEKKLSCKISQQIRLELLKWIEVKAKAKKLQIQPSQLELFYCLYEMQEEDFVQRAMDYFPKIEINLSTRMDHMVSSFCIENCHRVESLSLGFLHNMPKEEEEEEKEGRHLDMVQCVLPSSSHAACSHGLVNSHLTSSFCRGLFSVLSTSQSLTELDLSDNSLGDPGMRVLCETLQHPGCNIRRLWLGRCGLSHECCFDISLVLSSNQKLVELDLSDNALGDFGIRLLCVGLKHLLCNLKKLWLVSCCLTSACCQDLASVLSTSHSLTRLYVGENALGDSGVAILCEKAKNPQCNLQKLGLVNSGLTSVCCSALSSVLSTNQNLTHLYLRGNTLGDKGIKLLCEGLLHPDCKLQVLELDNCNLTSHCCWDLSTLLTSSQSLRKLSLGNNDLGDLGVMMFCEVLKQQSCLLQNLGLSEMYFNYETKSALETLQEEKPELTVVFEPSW

[12] = target: Melanin-concentrating hormone receptor 1 (Homo sapiens, UniProt Q99705); experiment: Late-stage fluorescence-based counterscreen for antagonists of the G-protein coupled receptor 7 (GPR7): cell-based dose response assay to identify antagonists of the melanin-concentrating hormone receptor 1 (MCHR1). [Related pubchem assays (depositor defined):AID1861, AID1880, AID1952, AID2148, AID2251, AID2257, AID485339]; assay type: functional;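 further: stimulated with 30 nM MCH peptide agonist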
[13] = target: Neuropeptides B/W receptor type 1 (Homo sapiens, UniProt P48145); experiment: human NPBW1 receptor blockade, IC50 – cell-based, fluorescence, dose response, late-stage follow-up (AID 463251); assay type: functional
Sequence of Neuropeptides B/W receptor type 1 (P48145 whole entry): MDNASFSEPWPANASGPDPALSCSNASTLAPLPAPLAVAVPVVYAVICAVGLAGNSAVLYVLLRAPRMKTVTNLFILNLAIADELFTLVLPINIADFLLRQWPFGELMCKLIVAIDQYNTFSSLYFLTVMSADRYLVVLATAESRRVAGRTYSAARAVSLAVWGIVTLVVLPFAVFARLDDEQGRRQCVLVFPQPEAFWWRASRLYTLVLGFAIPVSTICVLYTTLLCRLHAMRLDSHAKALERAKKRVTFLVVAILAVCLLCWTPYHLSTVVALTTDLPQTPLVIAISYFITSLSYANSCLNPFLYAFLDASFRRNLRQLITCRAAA

[14] = target: Voltage-dependent T-type calcium channel subunit alpha-1H (Homo sapiens, UniProt O95180); experiment: human CACNA1H calcium influx blockade – cell-based, synthetic library set 1, calcium flux (AID 493022); assay type: functional
[15] = target: Integrin alpha-4 (Homo sapiens, UniProt P13612); experiment: allosteric modulators of alpha4 integrin VLA-4 – cell-based, LIBS antibody binding, flow cytometry, SAR follow-up (AID 488791); assay type: functional
Sequence of Integrin alpha-4 (P13612 whole entry): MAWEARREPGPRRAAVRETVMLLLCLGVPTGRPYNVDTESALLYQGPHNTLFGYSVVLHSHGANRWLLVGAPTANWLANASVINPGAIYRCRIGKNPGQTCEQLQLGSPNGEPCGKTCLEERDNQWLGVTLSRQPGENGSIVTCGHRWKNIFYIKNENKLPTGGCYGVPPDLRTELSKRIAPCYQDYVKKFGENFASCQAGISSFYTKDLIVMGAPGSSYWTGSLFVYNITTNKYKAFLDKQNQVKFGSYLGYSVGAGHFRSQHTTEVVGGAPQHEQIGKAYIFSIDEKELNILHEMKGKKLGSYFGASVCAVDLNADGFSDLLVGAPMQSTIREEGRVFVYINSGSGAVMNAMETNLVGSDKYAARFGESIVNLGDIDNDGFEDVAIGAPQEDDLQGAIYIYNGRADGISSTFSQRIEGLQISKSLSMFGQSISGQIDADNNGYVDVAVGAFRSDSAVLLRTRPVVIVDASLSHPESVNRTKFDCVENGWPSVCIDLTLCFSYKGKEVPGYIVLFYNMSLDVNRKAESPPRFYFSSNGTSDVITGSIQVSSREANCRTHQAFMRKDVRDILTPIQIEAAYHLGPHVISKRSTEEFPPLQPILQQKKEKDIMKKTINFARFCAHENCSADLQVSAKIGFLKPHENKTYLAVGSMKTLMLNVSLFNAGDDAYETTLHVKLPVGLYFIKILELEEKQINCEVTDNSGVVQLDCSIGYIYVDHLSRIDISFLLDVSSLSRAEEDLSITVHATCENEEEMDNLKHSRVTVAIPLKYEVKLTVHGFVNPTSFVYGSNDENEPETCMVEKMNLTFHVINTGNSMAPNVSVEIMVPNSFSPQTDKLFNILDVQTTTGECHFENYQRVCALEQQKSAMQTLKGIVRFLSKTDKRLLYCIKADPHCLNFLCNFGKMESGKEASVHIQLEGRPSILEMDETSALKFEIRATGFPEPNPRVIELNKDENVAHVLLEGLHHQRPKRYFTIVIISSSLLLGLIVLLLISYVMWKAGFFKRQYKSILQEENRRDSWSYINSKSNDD

Sequence of Sphingosine 1-phosphate receptor 4 (O95977 whole entry): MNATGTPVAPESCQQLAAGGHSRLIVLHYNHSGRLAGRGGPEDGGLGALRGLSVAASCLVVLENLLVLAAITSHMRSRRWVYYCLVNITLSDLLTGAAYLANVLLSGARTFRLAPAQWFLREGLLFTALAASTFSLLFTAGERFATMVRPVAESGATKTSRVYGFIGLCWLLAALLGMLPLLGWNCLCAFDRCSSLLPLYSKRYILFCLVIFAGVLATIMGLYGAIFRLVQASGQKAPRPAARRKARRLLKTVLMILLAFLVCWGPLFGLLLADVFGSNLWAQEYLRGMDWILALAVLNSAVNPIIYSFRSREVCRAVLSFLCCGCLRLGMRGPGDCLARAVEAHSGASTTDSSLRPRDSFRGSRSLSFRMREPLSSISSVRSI

EC50 [1]: > 50 µM (inactive)
Compound: Cc1ccc(OCCOc2ccc(Oc3ccccc3)cc2)c([N+](=O)[O-])n1

IC50 [2]: > 32 µM (inactive) | IC50 [3]: 0.154 µM (active) | IC50 [4]: 0.00406 µM (active) | IC50 [5]: 0.225 µM (active) | IC50 [6]: 30.9 µM (inactive)
Compound: COc1ccc(N2CCN(CCCNC(=O)Cn3c(=O)c4cccn4c4c(C)ccnc43)CC2)c(OC)c1

Compound: COc1ccc(CCN(C)C(=O)C2CCCN(Cc3ccccc3)C2)cc1OC (stereo not given)
AC50 [7]: 1.4 µM (active) | AC50 [8]: 47.4 µM (active)

EC50 [9]: > 16.6 µM (active) | EC50 [10]: > 49.7 µM (inactive)
Compound: Cc1cc(O)nc(-n2nc(C)cc2NC(=O)/C=C/c2ccccc2)n1

IC50 [11]: 4.07 µM (active)
Compound: Cc1csc2nc(O)c(C(=O)NCCC3=CCCCC3)c(=O)n12

IC50 [12]: 12.6 µM (inactive) | IC50 [13]: 7 µM (active)
Compound: COc1ccc(Oc2cnn(-c3ccc(C)cc3)c(=O)c2Cl)cc1

EC50 [14]: 10 µM (active)
Compound: CC(Oc1ccccc1)C(=O)Nc1nnc(-c2ccc3c(c2)OCO3)o1 (stereo not given)

EC50 [15]: 3.89 µM (active)
Compound: FC(F)Oc1ccc(C2=Nn3c(nnc3-c3ccccc3Cl)SC2)cc1OCC1CC1
